Here are results for one molecule from US20220275461A1, “DIAGNOSTICS AND METHODS FOR PROGNOSING RESPONSE TO IMMUNOTHERAPY BASED ON THE METHYLATION STATUS OF IMMUNE SYNAPSE GENE SIGNATURE” (H. LEE MOFFITT CANCER CENTER AND RESEARCH INSTITUTE, INC., priority 2019, published 2022).

Assay [1] deals with CD40 gene in CAMA1 cell line. As to conditions: mock- vs azacytidine-treated, FIG. 18F; cited from earlier work.
For assay [2], the system named is epithelial cancer cell lines. The experiment in a line: PC1 scores of mock- or 5-azacitidine-treated cancer cell lines (GSE57342 dataset). The format is cell-based. As to conditions: 26 epithelial cancer cell lines, mock- vs 5-azacitidine-treated; FIG. 18E. The source says: The GSE57342 processed dataset was downloaded and cell lines with more than three Mock- and three 5-azacitidine-treated samples was selected for analysis.
We used the first and second principal component (a weighted average β-values among the CSG and ICG probes), as they account for the largest variability in the data, to represent the overall methylation status for 8,931 tumor and normal samples in the TCGA database. That is, PC=Σwixi, a weighted average β-values among the selected CSG and ICG probes, where xi represents gene i β-value, wi is the corresponding weight (loading coefficient) with Σwi^2=1, and the wi values maximize the variance of Σwixi. For each gene, a set of probes were selected using the following criteria to minimize noise, r<−0.2 (methylation vs gene expression) located in the TSS1500, TSS200 or the 5′UTR (Table 4). Each probe was centered but not scaled before PCA calculations.

Structures are written as SMILES.

Consider `Nc1ncn([C@@H]2O[C@H](CO)[C@@H](O)[C@H]2O)c(=O)n1` [5-azacytidine], for which, in assay [1], the “methylation status of CD40 gene” value is “demethylation of CD40”. In addition, the “PC1 score (hypermethylation of CSGs)” value in assay [2] is “significant decrease in PC1 scores”.
